Experimental data: US20230264009A1, “DISINFECTING CAP KIT FOR LUER ACCESS DEVICES” (SterileCare Inc., priority 2022, published 2023)

What was measured:
[1] = system: Pseudomonas aeruginosa SK1; experiment: Checkerboard titration, FMCI; type: cell-based; settings: P. aeruginosa SK1
Description: (§1) An assay was made using a minimum inhibitory concentration (MIC) and minimum bactericidal concentration (MBC) and minimum fungicidal concentration (MFC) determination. The MIC was determined by the micro broth dilution method in 96-well plates. Serial two-fold dilutions of tetrasodium EDTA (from 2% to 0.015%), ethanol (from 50% to 0.1%) and chlorhexidine HCl (from 100 µg/mL to 0.025 µg/mL) were prepared in MH broth with a final volume of 90 µL per well. A 10 µL containing 1 × 10^5 bacterial cells or 2 × 10^3 fungal cells were added to each well. The inoculated plates were covered with a lid, sealed with Parafilm, and incubated for 24 h at 37° C. with slight rocking on a tilting platform shaker. After incubation, the optical density at 600 nm (OD 600 ) of the cultures in each well was measured using an xMark™ Microplate Absorbance Spectrophotometer (Bio-Rad). […] MBCs and MFCs were determined by transferring 100 µL from each well with no apparent growth onto appropriate agar plates, followed by incubation for 24 h at 37° C.
(§2) A fourth composition and solution included tetrasodium EDTA with ethanol or chlorhexidine HCl. This fourth composition and solution were created using checkerboard titration methods using micro broth dilution in 96-well microtiter plates. The concentrations of antimicrobials used were based on previously determined MIC values. Briefly, 200 µL of two-fold dilutions of tetrasodium EDTA and ethanol or chlorhexidine HCl were prepared in MH or MH II broth with standardized cell suspension. […] Microtiter plates were incubated at 37° C. for 24 h, and the results were analyzed. Each test was performed in duplicate and included a growth control without adding any antimicrobials.

Candida albicans SK4b = experiment: Checkerboard titration, FMCI; type: cell-based; settings: C. albicans SK4b
Description: as §1, §2

Serratia marcescens SK2 = experiment: Checkerboard titration, FMCI; type: cell-based; settings: S. marcescens SK2
Description: as §1, §2

Escherichia coli ON29 = experiment: Checkerboard titration, FMCI; type: cell-based; settings: E. coli ON29
Description: as §1, §2

Proteus mirabilis ON153 = experiment: Checkerboard titration, FMCI; type: cell-based; settings: P. mirabilis ON153
Description: as §1, §2

[2] = system: Stenotrophomonas maltophilia ON17; experiment: Checkerboard titration, FMCI; type: cell-based; settings: S. maltophilia ON17
Description: as §1, §2

[3] = system: Proteus mirabilis ON153 biofilm; experiment: FBEC index, checkerboard dilution on biofilms; type: cell-based; settings: P. mirabilis ON153 biofilm
Description: (§3) In step (4), microtiter plates are incubated at 37° C. for 24 h. then (6), after incubation, the bacterial and fungal cells were dislodged from the pegs into the recovery medium described above.
(§4) Three 10-µL aliquots, for a total of 30 µL from each well of recovery medium, were spotted on MH agar plates and incubated for 24 h at 37° C. […] The FBEC determination is a modification of the FICI.

[4] = system: Pseudomonas aeruginosa SK1 biofilm; experiment: FBEC index, checkerboard dilution on biofilms; type: cell-based; settings: P. aeruginosa SK1 biofilm
Description: as §3, §4

S. epidermidis SK9 = experiment: Checkerboard titration, FMCI; type: cell-based, Staphylococcus epidermidis
Description: as §1, §2

C. albicans ON47 = experiment: MIC, micro broth dilution; type: cell-based, Candida albicans; settings: alone, 24 h
Description: as §1

[5] = tetrasodium EDTA + chlorhexidine HCl

O=C([O-])CN(CCN(CC(=O)[O-])CC(=O)[O-])CC(=O)[O-].[Na+].[Na+].[Na+].[Na+] [EDTA, tetrasodium EDTA]
Concentration in combination giving FMCI [1, 5]: 0.031 % w/v | Concentration in combination giving FMCI ([1]; tetrasodium EDTA + ethanol): 0.031 % w/v | Concentration in combination giving FMCI (Candida albicans SK4b; [5]): 0.125 % w/v | Concentration in combination giving FMCI (Candida albicans SK4b; tetrasodium EDTA + ethanol): 0.25 % w/v | Concentration in combination giving FMCI (Serratia marcescens SK2; [5]): 0.125 % w/v | Concentration in combination giving FMCI (Serratia marcescens SK2; tetrasodium EDTA + ethanol): 0.25 % w/v | Concentration in combination giving FMCI (Escherichia coli ON29; [5]): 0.008 % w/v | Concentration in combination giving FMCI (Escherichia coli ON29; tetrasodium EDTA + ethanol): 0.25 % w/v | Concentration in combination giving FMCI (Proteus mirabilis ON153; [5]): 0.125 % w/v | Concentration in combination giving FMCI (Proteus mirabilis ON153; tetrasodium EDTA + ethanol): 0.063 % w/v | Concentration in combination giving FMCI [2, 5]: 0.031 % w/v | Concentration in combination giving FMCI ([2]; tetrasodium EDTA + ethanol): 0.125 % w/v | FBEC (concentration in combination) [3, 5]: 0.125 % w/v | FBEC (concentration in combination) ([3]; tetrasodium EDTA + ethanol): 0.125 % w/v | FBEC (concentration in combination) [4, 5]: 0.25 % w/v | FBEC (concentration in combination) ([4]; tetrasodium EDTA + ethanol): 0.125 % w/v | Concentration in combination giving FMCI (S. epidermidis SK9; [5]): 0.008 % w/v | Concentration in combination giving FMCI (S. epidermidis SK9; tetrasodium EDTA + ethanol): 0.031 % w/v | MIC (C. albicans ON47): 1 % w/v
